In patent publication US20260216342A1, “COMPOUNDS FOR NUCLEIC ACID CLEAVAGE” (priority 2023, published 2026):

What was measured:
[1] = tested on: SARS-CoV-2; type: cell-based; conditions: Vero CCL-81, MOI 0.05, 24 h
[2] = tested on: SARS-CoV-2; type: in vivo, K18-hACE2 transgenic mice; conditions: 10 mg/kg intranasally 1 hour pre-infection and 3 hours post-infection, day 5, plaque assay
[3] = tested on: RNA 69-er corresponding to the coronaviral pseudoknot; type: biochemical; conditions: 1 mM, 3 h incubation at 37° C.
[4] = tested on: SARS-CoV-2; assay: Virucidal activity on cell free virions; conditions: 6 μM, 1 h at 37° C., 1000 PFU, plaque assay
[5] = tested on: SARS-CoV-2; assay: Viral plaque-forming units by plaque assay; type: cell-based; conditions: supernatants of cultures treated with 6 mM for 24 h, vs vehicle control
[6] = tested on: RNA extracted from SARS-CoV-2; assay: Gel electrophoresis of SARS-CoV-2 RNA after degrader incubation; type: biochemical; conditions: 100 μM, 2 h at 37° C.; FIG. 5f
[7] = tested on: G4-forming RNA oligomer; assay: Degradation of G4-forming RNA oligomer by non-covalent PDS-based degraders; type: biochemical; conditions: 200 μM, CuSO4/THPTA/NaAsc, 37° C. for 4 h, LC-MS; FIG. 15
Procedure: […]. The mixture was heated at 95° C. for 5 minutes, then kept on ice for 30 minutes. CuSO4 (final concentration 200 μM), THPTA (700 μM) and NaAsc (50 mM) were then added, alongside with CBX-PDS, PDS-deg6 or PDS-Amlmi (200 μM). The reaction mixture was incubated at 37° C. for 4 h, quenched with EDTA (final concentration 12 mM) and then kept at 4° C. The reaction mixtures were analysed by LC-MS.

[8] = tested on: E. coli ribosome; assay: In vitro degradation of E. coli ribosome (agarose gel); type: biochemical; conditions: 15 mM to 0.47 mM, 18 hours at 37° C.
Procedure: The degradation activity was measured in an in vitro assay, targeting the E. coli ribosome. 200 μM […] were incubated with degrader in different concentration, ranging from 15 mM to 0.47 mM, for 18 hours at 37° C. Evaluation was made by agarose gel analysis.

In the case of `CCOC(=O)c1ccccc1NC(=O)N1CCCN(Cc2csc(C)n2)CC1` [MTDB], the “antiviral effect (coronaviral RNA in cells)” value ([1]; added before or after infection) is reported as “did not exhibit an antiviral effect”, the “50% inhibitory concentration (IC50)” value ([1]; drug added 1 h before or 1 h after infection) is reported as “did not inhibit viral replication and thus IC50 values could not be determined” and the lung viral load [2] is reported as “No differences in lung viral load”. The “degradation of RNA pseudoknot” value [3] was “no degradation”, the “virucidal effect on cell free virus” value [4] was “no virucidal effect was observed” and the “number of viral plaques” value [5] was “only showed decreased number of viral plaques when added before infection”. The “degradation of full-length coronaviral RNA on agarose gel” value [6] was “the two control molecules do not”.

With `CN(C)Cc1nccn1CCOCCOCCOCCOCCOCCn1cc(COc2cc(C(=O)Nc3cc(OCCN)c4ccccc4n3)nc(C(=O)Nc3cc(OCCN)c4ccccc4n3)c2)nn1` [PDS-Amimi] the “degrader potency on G4-forming RNA oligomer” value [7] was “more potent degrader than PDS-deg6”.

For `O=C(N[C@H](CO)[C@H](O)c1ccc([N+](=O)[O-])cc1)C(Cl)Cl` [chloramphenicol, Chloramphenicol], the ribosome degradation [8] was “no degradation”.

With “chloramphenicol-2PEG-imidazole degrader [18b]” the ribosome degradation [8] was “ribosome degradation could be observed at a concentration of 15 mM”.

“chloramphenicol-6PEG-imidazole degrader [18a]” was tested, and the ribosome degradation [8] was “no degradation visible”.

For “chloramphenicol-ethyl-imidazole degrader [18c]”, the ribosome degradation [8] was “no degradation visible”.
